{"source": "patent US8795679B2", "about": "“Pharmaceutical and cosmetic use of extracts from algae obtainable from saline hot water sources” (Blaa Lonid Hf, priority 2006, dated 2014)", "tested_on": "differentiation markers involucrin, transglutaminase-1, filaggrin, and loricrin in human epidermal keratinocytes", "test": "Induction of differentiation markers in human epidermal keratinocytes (real time RT-PCR)", "assay_type": "cell-based", "details": "especially at the early time point, 24 h post addition of the tested substance", "protocol": "The effect of the extracts obtained in Examples 1 and 2 on the differentiation markers involucrin, transglutaminase-1, filaggrin, and loricrin in human epidermal keratinocytes has been assessed. As control a ceramide mix (10 μM) was used to induce the differentiation markers.\nLong term cultured normal human epidermal keratinocytes, NHEK, prepared from neonatal foreskin are cultured in Keratinocyte SFM (Invitrogen, Heidelberg, Germany) supplemented with bovine pituitary extract (Invitrogen, Heidelberg, Germany) and recombinant epidermal growth factor (Invitrogen, Heidelberg, Germany). Cells are propagated up to passage 2 or 3 at 37° C. and 5% CO2. For induction of differentiation NHEKs are seeded in 6-well plates and grown up to confluence and treated with several concentrations of the algae extracts.\nTotal RNA was isolated using RNeasy Total RNA Kits (Qiagen, Hilden, Germany). The RNA concentration was determined via photometric measurement at 260/280 (Biophotometer, Eppendorf A G, Hamburg, Germany). An aliquot of 100 ng RNA was used for cDNA synthesis. […]\nPCR reactions were carried out on an Opticon 1 (MJ Research, Waltham, Mass., USA) using SYBR Green® PCR Master Mix (Applied Biosystems, Darmstadt, Germany). Each sample was analyzed in double employing the universal protocol over 36 cycles. […]"}
{"smiles": "O=[Si]([O-])[O-].[Na+].[Na+]", "note": "[sodium metasilicate]", "values": [{"measurement": "expression of the differentiation markers involucrin, filaggrin and transglutaminase-1 (silica samples)", "result": "substantial up-regulation"}]}
